Data from patent publication US20110015067A1, “Herbicidal Compositions Comprising Pyroxasulfone” (BASF SE, priority 2008, published 2011).
Like-named read-outs stand apart in the source and are kept apart here.

Experiments:
Assay in all cases: pre-emergence greenhouse test
Format in all cases: in vivo
[1] = system: PANMI (Panicum milliaceum)
From the text: (§1) For the pre-emergence treatment, directly after sowing the active compounds, which had been suspended or emulsified in water, were applied by means of finely distributed nozzles. The containers were irrigated gently to promote germination and growth and subsequently covered with transparent plastic hoods until plant had rooted. This cover caused uniform germination of the tests plants, unless this was adversely affected by active compounds.
(§2) The respective herbicides A and/or safener were formulated as 10% by weight strength suspension concentrate and introduced to the spray liquor with the amount of solvent system used for applying the active compound. Herbicide B and/or safener were used as commercially available formulations and introduced to the spray liquor with the amount of solvent system used for applying the active compound. In the examples, the solvent used was water.
(§3) The test period extended over 20 days. During this time, the plants were tended, and their response to the treatments with active compound was evaluated.
(§4) In the following experiments, the herbicidal activity for the individual herbicide compounds (solo application) and of the mixture was assessed 8 days after treatment (8 DAT) and/or 20 days after treatment (20 DAT).
(§5) The evaluation for the damage caused by the chemical compositions was carried out using a scale from 0 to 100%, compared to the untreated control plants. Here, 0 means no damage and 100 means complete destruction of the plants.

SETVI (Setaria viridis) = conditions: for observed activity in % destruction: pre-emergence
From the text: as §1, §2, §3, §4, §5

[2] = system: BRAPL (Brachiaria plantaginea); conditions: for observed activity in % destruction: pre-emergence
From the text: as §1, §2, §3, §4, §5

SOLNI (Solanum nigrum) = conditions: for inhibition at 50 g/ha: Solanum nigrum, use rate 50 g ai/ha, read-out: observed % activity; for inhibition at 50 g/ha / observed activity in % destruction: pre-emergence
From the text: as §1, §2, §3, §4, §5

[3] = system: ALOMY (Alopecurus myosuroides); conditions: for observed activity in % destruction: pre-emergence
From the text: as §1, §2, §3, §4, §5

ERBVI = conditions: for observed activity in % destruction: pre-emergence, 25 g ai/ha
From the text: as §1, §2, §3, §4, §5

[4] = system: CCHEC (Cenchrus echinatus)
From the text: as §1, §2, §3, §4, §5

PHBPU (Ipomoea purpurea) = conditions: for observed activity in % destruction: pre-emergence, 50 g ai/ha
From the text: as §1, §2, §3, §4, §5

[5] = system: ABUTH (Abutilon theophrasti); conditions: for observed activity in % destruction: pre-emergence, 50 g ai/ha
From the text: as §1, §2, §3, §4, §5

[6] = system: PANDI (Panicum dichotomiflorum); conditions: for observed activity in % destruction: pre-emergence
From the text: as §1, §2, §3, §4, §5

[7] = system: AMBEL (Ambrosia artemisifolia); conditions: for observed activity in % destruction: pre-emergence, 50 g ai/ha
From the text: as §1, §2, §3, §4, §5

SETFA (Setaria faberii) = conditions: SETFA pre-emergence 25 g ai/ha
From the text: as §1, §2, §3, §4, §5

[8] = system: ECHCG (Echinochloa crus-galli); conditions: for inhibition at 25 g/ha: Echinochloa crus-galli, use rate 25 g ai/ha, read-out: observed % activity; for inhibition at 25 g/ha / observed activity in % destruction: pre-emergence
From the text: as §1, §2, §3, §4, §5

[9] = SETVI pre-emergence 6.25 g ai/ha
[10] = SETVI pre-emergence 12.5 g ai/ha
[11] = BRAPL pre-emergence 6.25 g ai/ha
[12] = BRAPL pre-emergence 12.5 g ai/ha
[13] = ABUTH pre-emergence 6.25 g ai/ha
[14] = ABUTH pre-emergence 12.5 g ai/ha
[15] = PANDI pre-emergence 6.25 g ai/ha
[16] = ECHCG pre-emergence 12.5 g ai/ha

## Cn1nc(C(F)(F)F)c(CS(=O)(=O)C2=NOC(C)(C)C2)c1OC(F)F [pyroxasulfone, 3-[5-(difluoromethoxy)-1-methyl-3-(trifluoromethyl)pyrazol-4-ylmethylsulfonyl]-4,5-dihydro-5,5-dimethyl-1,2-oxazole]
[1]; PANMI pre-emergence 6.25 g ai/ha
  observed % destruction 20 DAT: 35%
[1]; PANMI pre-emergence 25 g ai/ha
  observed % destruction 20 DAT: 85%
[1]; PANMI pre-emergence 50 g ai/ha
  observed % destruction 8 DAT: 75%
  observed % destruction 20 DAT: 90%
SETVI (Setaria viridis); [9]
  observed % destruction 8 DAT: 30%
  observed % destruction 20 DAT: 75%
SETVI (Setaria viridis); [10]
  observed % destruction 8 DAT: 70%
  observed % destruction 20 DAT: 95%
SETVI (Setaria viridis); SETVI pre-emergence 25 g ai/ha
  observed % destruction 8 DAT: 80%
  observed % destruction 20 DAT: 98%
SETVI (Setaria viridis); SETVI pre-emergence 50 g ai/ha
  observed % destruction 8 DAT: 90%
  observed % destruction 20 DAT: 100%
SETVI (Setaria viridis); 6.25 g ai/ha, 8 DAT
  observed activity in % destruction: 30%
SETVI (Setaria viridis); 6.25 g ai/ha, 20 DAT
  observed activity in % destruction: 75%
SETVI (Setaria viridis); 12.5 g ai/ha, 8 DAT
  observed activity in % destruction: 70%
SETVI (Setaria viridis); 12.5 g ai/ha, 20 DAT
  observed activity in % destruction: 95%
SETVI (Setaria viridis); 50 g ai/ha, 8 DAT
  observed activity in % destruction: 90%
SETVI (Setaria viridis); 50 g ai/ha, 20 DAT
  observed activity in % destruction: 100%
[2]; [11]
  observed % destruction 8 DAT: 30%
  observed % destruction 20 DAT: 70%
[2]; [12]
  observed % destruction 8 DAT: 35%
  observed % destruction 20 DAT: 80%
[2]; BRAPL pre-emergence 25 g ai/ha
  observed % destruction 8 DAT: 60%
  observed % destruction 20 DAT: 95%
[2]; BRAPL pre-emergence 50 g ai/ha
  observed % destruction 20 DAT: 98%
[2]; 12.5 g ai/ha, 8 DAT
  observed activity in % destruction: 35%
[2]; 12.5 g ai/ha, 20 DAT
  observed activity in % destruction: 80%
[2]; 25 g ai/ha, 8 DAT
  observed activity in % destruction: 60%
[2]; 25 g ai/ha, 20 DAT
  observed activity in % destruction: 95%
[2]; 50 g ai/ha, 8 DAT
  observed activity in % destruction: 70%
[2]; 50 g ai/ha, 20 DAT
  observed activity in % destruction: 98%
SOLNI (Solanum nigrum); SOLNI pre-emergence 6.25 g ai/ha
  observed % destruction 20 DAT: 50%
SOLNI (Solanum nigrum); SOLNI pre-emergence 12.5 g ai/ha
  observed % destruction 20 DAT: 70%
SOLNI (Solanum nigrum); SOLNI pre-emergence 25 g ai/ha
  observed % destruction 20 DAT: 90%
SOLNI (Solanum nigrum); SOLNI pre-emergence 50 g ai/ha
  observed % destruction 8 DAT: 50%
  observed % destruction 20 DAT: 95%
SOLNI (Solanum nigrum); 192 h, 8 DAT
  inhibition at 50 g/ha: 50%
SOLNI (Solanum nigrum); 480 h, 20 DAT
  inhibition at 50 g/ha: 95%
SOLNI (Solanum nigrum); 12.5 g ai/ha, 8 DAT
  observed activity in % destruction: 30%
SOLNI (Solanum nigrum); 12.5 g ai/ha, 20 DAT
  observed activity in % destruction: 70%
SOLNI (Solanum nigrum); 25 g ai/ha, 8 DAT
  observed activity in % destruction: 30%
SOLNI (Solanum nigrum); 25 g ai/ha, 20 DAT
  observed activity in % destruction: 90%
SOLNI (Solanum nigrum); 50 g ai/ha, 8 DAT
  observed activity in % destruction: 50%
SOLNI (Solanum nigrum); 50 g ai/ha, 20 DAT
  observed activity in % destruction: 95%
[3]; ALOMY pre-emergence 6.25 g ai/ha
  observed % destruction 20 DAT: 90%
[3]; ALOMY pre-emergence 12.5 g ai/ha
  observed % destruction 20 DAT: 98%
[3]; ALOMY pre-emergence 25 g ai/ha
  observed % destruction 20 DAT: 98%
[3]; ALOMY pre-emergence 50 g ai/ha
  observed % destruction 8 DAT: 85%
  observed % destruction 20 DAT: 98%
[3]; 12.5 g ai/ha, 8 DAT
  observed activity in % destruction: 70%
[3]; 12.5 g ai/ha, 20 DAT
  observed activity in % destruction: 98%
[3]; 25 g ai/ha, 8 DAT
  observed activity in % destruction: 80%
[3]; 25 g ai/ha, 20 DAT
  observed activity in % destruction: 98%
[3]; 50 g ai/ha, 8 DAT
  observed activity in % destruction: 85%
[3]; 50 g ai/ha, 20 DAT
  observed activity in % destruction: 98%
ERBVI; ERBVI pre-emergence 6.25 g ai/ha
  observed % destruction 20 DAT: 40%
ERBVI; ERBVI pre-emergence 12.5 g ai/ha
  observed % destruction 20 DAT: 55%
ERBVI; ERBVI pre-emergence 25 g ai/ha
  observed % destruction 8 DAT: 60%
  observed % destruction 20 DAT: 75%
ERBVI; 8 DAT
  observed activity in % destruction: 60%
ERBVI; 20 DAT
  observed activity in % destruction: 75%
[4]; CCHEC pre-emergence 6.25 g ai/ha
  observed % destruction 20 DAT: 35%
[4]; CCHEC pre-emergence 12.5 g ai/ha
  observed % destruction 20 DAT: 65%
PHBPU (Ipomoea purpurea); PHBPU pre-emergence 6.25 g ai/ha
  observed % destruction 20 DAT: 0%
PHBPU (Ipomoea purpurea); PHBPU pre-emergence 12.5 g ai/ha
  observed % destruction 20 DAT: 55%
PHBPU (Ipomoea purpurea); PHBPU pre-emergence 50 g ai/ha
  observed % destruction 20 DAT: 75%
PHBPU (Ipomoea purpurea); 8 DAT
  observed activity in % destruction: 30%
PHBPU (Ipomoea purpurea); 20 DAT
  observed activity in % destruction: 75%
[5]; [13]
  observed % destruction 8 DAT: 0%
  observed % destruction 20 DAT: 30%
[5]; [14]
  observed % destruction 8 DAT: 0%
  observed % destruction 20 DAT: 40%
[5]; 8 DAT
  observed activity in % destruction: 40%
[5]; 20 DAT
  observed activity in % destruction: 95%
[6]; [15]
  observed % destruction 8 DAT: 65%
  observed % destruction 20 DAT: 90%
[6]; PANDI pre-emergence 25 g ai/ha
  observed % destruction 8 DAT: 90%
  observed % destruction 20 DAT: 100%
[6]; PANDI pre-emergence 50 g ai/ha
  observed % destruction 8 DAT: 90%
  observed % destruction 20 DAT: 100%
[6]; 6.25 g ai/ha, 8 DAT
  observed activity in % destruction: 65%
[6]; 6.25 g ai/ha, 20 DAT
  observed activity in % destruction: 90%
[6]; 12.5 g ai/ha, 8 DAT
  observed activity in % destruction: 80%
[6]; 12.5 g ai/ha, 20 DAT
  observed activity in % destruction: 100%
[6]; 50 g ai/ha, 8 DAT
  observed activity in % destruction: 90%
[6]; 50 g ai/ha, 20 DAT
  observed activity in % destruction: 100%
[7]; AMBEL pre-emergence 6.25 g ai/ha
  observed % destruction 20 DAT: 0%
[7]; AMBEL pre-emergence 12.5 g ai/ha
  observed % destruction 20 DAT: 40%
[7]; AMBEL pre-emergence 25 g ai/ha
  observed % destruction 20 DAT: 40%
[7]; AMBEL pre-emergence 50 g ai/ha
  observed % destruction 8 DAT: 50%
  observed % destruction 20 DAT: 85%
[7]; 8 DAT
  observed activity in % destruction: 50%
[7]; 20 DAT
  observed activity in % destruction: 85%
SETFA (Setaria faberii)
  observed % destruction 20 DAT: 98%
[8]; [16]
  observed % destruction 8 DAT: 70%
  observed % destruction 20 DAT: 98%
[8]; ECHCG pre-emergence 25 g ai/ha
  observed % destruction 8 DAT: 75%
  observed % destruction 20 DAT: 98%
[8]; ECHCG pre-emergence 50 g ai/ha
  observed % destruction 8 DAT: 90%
  observed % destruction 20 DAT: 100%
[8]; 192 h, 8 DAT
  inhibition at 25 g/ha: 75%
[8]; 480 h, 20 DAT
  inhibition at 25 g/ha: 98%
[8]; 12.5 g ai/ha, 8 DAT
  observed activity in % destruction: 70%
[8]; 12.5 g ai/ha, 20 DAT
  observed activity in % destruction: 98%
[8]; 25 g ai/ha, 8 DAT
  observed activity in % destruction: 75%
[8]; 25 g ai/ha, 20 DAT
  observed activity in % destruction: 98%
[8]; 50 g ai/ha, 8 DAT
  observed activity in % destruction: 90%
[8]; 50 g ai/ha, 20 DAT
  observed activity in % destruction: 100%
